Results from publication PMC8969151 (2022).

Columns and labels:
Assay in all cases: in vitro transcription antitermination dose-response (E. coli RNAP)
[1] = tested on: pfl ZTP riboswitch with C3-SC1 leader (PRA1_Cap3_SC1_CbePfl_dRP1) (RNA, riboswitch) AUUCGGUGCUCUUCUCUUCGGCCUUCGGGCCAAAUUAGAUAUUAGUCAUAUGACUGACGGAAGUGGAGUUACCACAUGAAGUAUGACUAGGCAUAUUAUCUUAUAUGCCACAAAAAGCCGACCGUCUGGGCAAAAAAAGCCUGGAUUGCGUCGGCUUUUUUAUAUGGAAAAGAUCGUCGGACUGUAGAACUCUGAACGUGUAGAUCUCGGUGGUCGCCGUAUCAUU; conditions: 50 mM KCl, 10 mM MgCl2; 20 mM Tris-HCl pH 8.0, 37 °C, 500 μM NTPs; up to 1 mM ZMP; readthrough fold-change 7.1
[2] = tested on: pfl ZTP riboswitch (native, leader-less; PRA1_CbePfl_dRP1) (RNA, riboswitch) AUAUUAGAUAUUAGUCAUAUGACUGACGGAAGUGGAGUUACCACAUGAAGUAUGACUAGGCAUAUUAUCUUAUAUGCCACAAAAAGCCGACCGUCUGGGCAAAAAAAGCCUGGAUUGCGUCGGCUUUUUUAUAUGGAAAAGAUCGUCGGACUGUAGAACUCUGAACGUGUAGAUCUCGGUGGUCGCCGUAUCAUU; conditions: 50 mM KCl, 10 mM MgCl2; 20 mM Tris-HCl pH 8.0, 37 °C, 500 μM NTPs; up to 1 mM ZMP; readthrough fold-change 3.6
[3] = tested on: Cba ppGpp riboswitch (native, leader-less; PRA1_Cba2-2_dRP1) (RNA, riboswitch) AUAAUAAGAGAGUGUAUCUAGGGUUCCGGUCAAUAGAUGUCUGGUCCGAGCGAUACAGGAUUUCAAUCUACACUUUUAGGAAAAAAGCCUAAAGGACGAGUCUCUGCAAAGAGAUUUGUUCUUGGGCUUUAUUUUUUUAUCUUUAUUUAAGAUCGUCGGACUGUAGAACUCUGAACGUGUAGAUCUCGGUGGUCGCCGUAUCAUU; conditions: 50 mM KCl, 10 mM MgCl2; 20 mM Tris-HCl pH 8.0, 37 °C, 500 μM NTPs, NusA only stated for leader assay; readthrough fold-change 1.9
[4] = tested on: Cba ppGpp riboswitch with C3-SC1 leader (PRA1_Cap3_SC1_Cba2-2_dRP1) (RNA, riboswitch) AUUCGGUGCUCUUCUCUUCGGCCUUCGGGCCAAAAUAAGAGAGUGUAUCUAGGGUUCCGGUCAAUAGAUGUCUGGUCCGAGCGAUACAGGAUUUCAAUCUACACUUUUAGGAAAAAAGCCUAAAGGACGAGUCUCUGCAAAGAGAUUUGUUCUUGGGCUUUAUUUUUUUAUCUUUAUUUAAGAUCGUCGGACUGUAGAACUCUGAACGUGUAGAUCUCGGUGGUCGCCGUAUCAUU; conditions: 50 mM KCl, 10 mM MgCl2; 20 mM Tris-HCl pH 8.0, 37 °C, 500 μM NTPs, NusA; readthrough fold-change 6.0

binding [1]	binding [2]	binding [3]	binding [4]	Compound
yes	yes			NC(=O)c1ncn([C@@H]2O[C@H](COP(=O)(O)O)[C@@H](O)[C@H]2O)c1N
		yes	yes	Nc1nc2c(ncn2[C@@H]2O[C@H](COP(=O)(O)OP(=O)(O)O)[C@@H](OP(=O)(O)OP(=O)(O)O)[C@H]2O)c(=O)[nH]1
